Experimental data: article PMC3399817 (PLoS ONE, 2012)

Columns and labels:
Assay in all cases: KINOMEscan
Assay type in all cases: binding
PIP5K1A = biological target: T1, PIP5K1A (Homo sapiens, UniProt Q99755); settings: 1 uM
T1 construct: purchased Ambit KINOMEscan (DiscoverX)
How it was run: (§1)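 Substrate-binding inhibition measured with compound present at 1 μM, single concentration, to pick out affected kinases.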

HCK = biological target: T2, HCK (Homo sapiens, UniProt P08631); settings: 1 uM
T2 construct: purchased Ambit KINOMEscan (DiscoverX)
How it was run: as §1

NEK6 = biological target: T3, NEK6 (Homo sapiens, UniProt Q9HC98); settings: NEK6, 1 uM
T3 construct: purchased Ambit KINOMEscan (DiscoverX)
How it was run: as §1

ABL2 = biological target: T4, ABL2 (Homo sapiens, UniProt P42684); settings: ABL2, 1 uM
T4 construct: purchased Ambit KINOMEscan (DiscoverX)
How it was run: as §1

DDR2 = biological target: T5, DDR2 (Homo sapiens, UniProt Q16832); settings: DDR2, 1 uM
T5 construct: purchased Ambit KINOMEscan (DiscoverX)
How it was run: as §1

LIMK2 = biological target: T6, LIMK2 (Homo sapiens, UniProt P53671); settings: LIMK2, 1 uM
T6 construct: purchased Ambit KINOMEscan (DiscoverX)
How it was run: as §1

PAK1 = biological target: T7, PAK1 (Homo sapiens, UniProt Q13153); settings: PAK1, 1 uM
T7 construct: purchased Ambit KINOMEscan (DiscoverX)
How it was run: as §1

MARK2 = biological target: T8, MARK2 (Homo sapiens, UniProt Q7KZI7); settings: MARK2, 1 uM
T8 construct: purchased Ambit KINOMEscan (DiscoverX)
How it was run: as §1

SLK = biological target: T9, SLK (Homo sapiens, UniProt Q9H2G2); settings: 1 uM
T9 construct: purchased Ambit KINOMEscan (DiscoverX)
How it was run: as §1

BMPR2 = biological target: T10, BMPR2 (Homo sapiens, UniProt Q13873); settings: BMPR2, 1 uM
T10 construct: purchased Ambit KINOMEscan (DiscoverX)
How it was run: as §1

ACVR2A = biological target: T11, ACVR2A (Homo sapiens, UniProt P27037); settings: 1 uM
T11 construct: purchased Ambit KINOMEscan (DiscoverX)
How it was run: as §1

NEK5 = biological target: T12, NEK5 (Homo sapiens, UniProt Q6P3R8); settings: NEK5, 1 uM
T12 construct: purchased Ambit KINOMEscan (DiscoverX)
How it was run: as §1

GSK3B = biological target: T13, GSK3B (Homo sapiens, UniProt P49841); settings: for % binding compared to no inhibitor control: GSK3B, 1 uM
T13 construct: purchased Ambit KINOMEscan (DiscoverX)
How it was run: as §1

CHEK2 = biological target: T14, CHEK2 (Homo sapiens, UniProt O96017); settings: CHEK2, 1 uM
T14 construct: purchased Ambit KINOMEscan (DiscoverX)
How it was run: as §1

KIT(L576P) = biological target: T15, KIT(L576P) (Homo sapiens, UniProt P10721, L576P); settings: 1 uM
T15 construct: purchased Ambit KINOMEscan (DiscoverX)
How it was run: as §1

PIK3CA(E545A) = biological target: T16, PIK3CA(E545A) (Homo sapiens, UniProt P42336, E545A); settings: 1 uM
T16 construct: purchased Ambit KINOMEscan (DiscoverX)
How it was run: as §1

ITK = biological target: T17, ITK (Homo sapiens, UniProt Q08881); settings: 1 uM
T17 construct: purchased Ambit KINOMEscan (DiscoverX)
How it was run: as §1

SIK2 = biological target: T18, SIK2 (Homo sapiens, UniProt Q9H0K1); settings: SIK2, 1 uM
T18 construct: purchased Ambit KINOMEscan (DiscoverX)
How it was run: as §1

PRKR = biological target: T19, PRKR (Homo sapiens, UniProt P19525); settings: 1 uM
T19 construct: purchased Ambit KINOMEscan (DiscoverX)
How it was run: as §1

CSF1R = biological target: T20, CSF1R (Homo sapiens, UniProt P07333); settings: 1 uM
T20 construct: purchased Ambit KINOMEscan (DiscoverX)
How it was run: as §1

NIM1 = biological target: T21, NIM1 (Homo sapiens, UniProt Q8IY84); settings: NIM1, 1 uM
T21 construct: purchased Ambit KINOMEscan (DiscoverX)
How it was run: as §1

ADCK3 = biological target: T22, ADCK3 (Homo sapiens, UniProt Q8NI60); settings: ADCK3, 1 uM
T22 construct: purchased Ambit KINOMEscan (DiscoverX)
How it was run: as §1

TRKC = biological target: T23, TRKC (Homo sapiens, UniProt Q16288); settings: 1 uM
T23 construct: purchased Ambit KINOMEscan (DiscoverX)
How it was run: as §1

TIE1 = biological target: T24, TIE1 (Homo sapiens, UniProt P35590); settings: TIE1, 1 uM
T24 construct: purchased Ambit KINOMEscan (DiscoverX)
How it was run: as §1

BIKE = biological target: T25, BIKE (Homo sapiens, UniProt Q9NSY1); settings: 1 uM
T25 construct: purchased Ambit KINOMEscan (DiscoverX)
How it was run: as §1

PAK3 = biological target: T26, PAK3 (Homo sapiens, UniProt O75914); settings: PAK3, 1 uM
T26 construct: purchased Ambit KINOMEscan (DiscoverX)
How it was run: as §1

CDK11 = biological target: T27, CDK11 (Homo sapiens, UniProt Q9BWU1); settings: CDK11, 1 uM
T27 construct: purchased Ambit KINOMEscan (DiscoverX)
How it was run: as §1

BMPR1B = biological target: T28, BMPR1B (Homo sapiens, UniProt O00238); settings: 1 uM
T28 construct: purchased Ambit KINOMEscan (DiscoverX)
How it was run: as §1

MET(Y1235D) = biological target: T29, MET(Y1235D) (Homo sapiens, UniProt P08581, Y1235D); settings: 1 uM
T29 construct: purchased Ambit KINOMEscan (DiscoverX)
How it was run: as §1

CTK = biological target: T30, CTK (Homo sapiens, UniProt P42679); settings: 1 uM
T30 construct: purchased Ambit KINOMEscan (DiscoverX)
How it was run: as §1

[1] = biological target: T31, TYK2(JH1domain-catalytic) (Homo sapiens, UniProt P29597); settings: 1 uM
T31 construct: TYK2(JH1domain-catalytic); purchased Ambit KINOMEscan (DiscoverX)
How it was run: as §1

MEK2 = biological target: T32, MEK2 (Homo sapiens, UniProt P36507); settings: MEK2, 1 uM
T32 construct: purchased Ambit KINOMEscan (DiscoverX)
How it was run: as §1

ERK3 = biological target: T33, ERK3 (Homo sapiens, UniProt Q16659); settings: ERK3, 1 uM
T33 construct: purchased Ambit KINOMEscan (DiscoverX)
How it was run: as §1

[2] = biological target: T34, JAK3(JH1domain-catalytic) (Homo sapiens, UniProt P52333); settings: 1 uM
T34 construct: JAK3(JH1domain-catalytic); purchased Ambit KINOMEscan (DiscoverX)
How it was run: as §1

PIK3CB = biological target: T35, PIK3CB (Homo sapiens, UniProt P42338); settings: 1 uM
T35 construct: purchased Ambit KINOMEscan (DiscoverX)
How it was run: as §1

DCAMKL3 = biological target: T36, DCAMKL3 (Homo sapiens, UniProt Q9C098); settings: DCAMKL3, 1 uM
T36 construct: purchased Ambit KINOMEscan (DiscoverX)
How it was run: as §1

STK16 = biological target: T37, STK16 (Homo sapiens, UniProt O75716); settings: STK16, 1 uM
T37 construct: purchased Ambit KINOMEscan (DiscoverX)
How it was run: as §1

LCK = biological target: T38, LCK (Homo sapiens, UniProt P06239); settings: 1 uM
T38 construct: purchased Ambit KINOMEscan (DiscoverX)
How it was run: as §1

IRAK1 = biological target: T39, IRAK1 (Homo sapiens, UniProt P51617); settings: IRAK1, 1 uM
T39 construct: purchased Ambit KINOMEscan (DiscoverX)
How it was run: as §1

MST3 = biological target: T40, MST3 (Homo sapiens, UniProt Q9Y6E0); settings: MST3, 1 uM
T40 construct: purchased Ambit KINOMEscan (DiscoverX)
How it was run: as §1

T13 sequence (P49841 whole entry): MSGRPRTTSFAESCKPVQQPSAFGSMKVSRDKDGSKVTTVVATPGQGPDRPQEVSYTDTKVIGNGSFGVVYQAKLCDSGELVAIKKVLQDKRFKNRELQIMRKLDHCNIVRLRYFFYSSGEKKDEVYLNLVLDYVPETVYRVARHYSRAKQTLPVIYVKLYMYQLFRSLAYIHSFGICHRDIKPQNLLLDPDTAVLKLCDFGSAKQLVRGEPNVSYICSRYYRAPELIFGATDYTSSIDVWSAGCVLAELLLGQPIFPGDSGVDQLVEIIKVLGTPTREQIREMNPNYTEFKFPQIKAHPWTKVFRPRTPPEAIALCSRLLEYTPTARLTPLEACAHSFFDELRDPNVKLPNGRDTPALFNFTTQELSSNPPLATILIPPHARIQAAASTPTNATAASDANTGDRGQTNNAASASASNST
T23 sequence (Q16288 32-839): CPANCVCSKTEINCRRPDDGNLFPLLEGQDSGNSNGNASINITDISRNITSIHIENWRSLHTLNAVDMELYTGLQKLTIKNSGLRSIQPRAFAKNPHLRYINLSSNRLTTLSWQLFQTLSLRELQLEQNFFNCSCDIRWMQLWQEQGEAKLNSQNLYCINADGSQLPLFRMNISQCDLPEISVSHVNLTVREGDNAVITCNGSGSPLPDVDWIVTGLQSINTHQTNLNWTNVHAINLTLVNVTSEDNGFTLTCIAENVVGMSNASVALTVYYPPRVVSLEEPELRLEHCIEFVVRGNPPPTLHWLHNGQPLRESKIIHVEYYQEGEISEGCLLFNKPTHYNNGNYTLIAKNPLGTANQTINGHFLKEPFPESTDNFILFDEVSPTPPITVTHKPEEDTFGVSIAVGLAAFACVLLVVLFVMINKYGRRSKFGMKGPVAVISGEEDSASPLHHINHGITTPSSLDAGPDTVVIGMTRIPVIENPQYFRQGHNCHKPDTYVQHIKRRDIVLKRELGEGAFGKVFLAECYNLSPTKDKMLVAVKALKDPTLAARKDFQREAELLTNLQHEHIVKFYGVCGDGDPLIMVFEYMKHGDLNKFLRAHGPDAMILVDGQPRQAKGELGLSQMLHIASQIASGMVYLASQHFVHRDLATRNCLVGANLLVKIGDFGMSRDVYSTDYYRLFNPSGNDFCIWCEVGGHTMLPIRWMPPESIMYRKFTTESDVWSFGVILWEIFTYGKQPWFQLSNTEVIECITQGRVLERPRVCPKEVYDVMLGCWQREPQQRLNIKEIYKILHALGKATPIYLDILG
T26 sequence (O75914 whole entry): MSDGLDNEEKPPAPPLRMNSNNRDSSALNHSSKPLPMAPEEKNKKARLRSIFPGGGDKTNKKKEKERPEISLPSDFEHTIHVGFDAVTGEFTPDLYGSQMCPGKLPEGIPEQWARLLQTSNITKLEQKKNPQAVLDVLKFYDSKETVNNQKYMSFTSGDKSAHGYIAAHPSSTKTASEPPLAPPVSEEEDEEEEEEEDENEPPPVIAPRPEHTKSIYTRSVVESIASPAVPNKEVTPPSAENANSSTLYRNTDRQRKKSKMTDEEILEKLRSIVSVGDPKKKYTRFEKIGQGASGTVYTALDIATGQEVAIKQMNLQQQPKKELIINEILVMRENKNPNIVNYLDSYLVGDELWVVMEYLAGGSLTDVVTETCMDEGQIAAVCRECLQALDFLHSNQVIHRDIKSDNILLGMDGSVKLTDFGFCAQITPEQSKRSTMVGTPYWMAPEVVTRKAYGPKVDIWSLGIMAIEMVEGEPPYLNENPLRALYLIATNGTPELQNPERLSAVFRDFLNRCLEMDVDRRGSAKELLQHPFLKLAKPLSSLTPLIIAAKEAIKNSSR
T7 sequence (Q13153 whole entry): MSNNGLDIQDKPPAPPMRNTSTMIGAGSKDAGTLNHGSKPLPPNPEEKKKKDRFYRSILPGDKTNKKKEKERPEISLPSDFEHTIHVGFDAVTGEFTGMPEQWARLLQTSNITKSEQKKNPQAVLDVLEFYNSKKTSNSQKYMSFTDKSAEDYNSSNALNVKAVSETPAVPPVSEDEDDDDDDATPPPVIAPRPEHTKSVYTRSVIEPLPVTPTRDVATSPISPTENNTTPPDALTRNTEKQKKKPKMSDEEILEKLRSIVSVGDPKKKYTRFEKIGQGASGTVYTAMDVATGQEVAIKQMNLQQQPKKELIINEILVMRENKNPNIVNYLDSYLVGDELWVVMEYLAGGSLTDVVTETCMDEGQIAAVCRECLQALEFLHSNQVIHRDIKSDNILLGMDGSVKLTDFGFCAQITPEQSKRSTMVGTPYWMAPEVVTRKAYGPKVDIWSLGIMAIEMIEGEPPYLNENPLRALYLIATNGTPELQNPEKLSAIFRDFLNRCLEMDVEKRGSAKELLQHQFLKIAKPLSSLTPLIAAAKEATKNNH
T18 sequence (Q9H0K1 whole entry): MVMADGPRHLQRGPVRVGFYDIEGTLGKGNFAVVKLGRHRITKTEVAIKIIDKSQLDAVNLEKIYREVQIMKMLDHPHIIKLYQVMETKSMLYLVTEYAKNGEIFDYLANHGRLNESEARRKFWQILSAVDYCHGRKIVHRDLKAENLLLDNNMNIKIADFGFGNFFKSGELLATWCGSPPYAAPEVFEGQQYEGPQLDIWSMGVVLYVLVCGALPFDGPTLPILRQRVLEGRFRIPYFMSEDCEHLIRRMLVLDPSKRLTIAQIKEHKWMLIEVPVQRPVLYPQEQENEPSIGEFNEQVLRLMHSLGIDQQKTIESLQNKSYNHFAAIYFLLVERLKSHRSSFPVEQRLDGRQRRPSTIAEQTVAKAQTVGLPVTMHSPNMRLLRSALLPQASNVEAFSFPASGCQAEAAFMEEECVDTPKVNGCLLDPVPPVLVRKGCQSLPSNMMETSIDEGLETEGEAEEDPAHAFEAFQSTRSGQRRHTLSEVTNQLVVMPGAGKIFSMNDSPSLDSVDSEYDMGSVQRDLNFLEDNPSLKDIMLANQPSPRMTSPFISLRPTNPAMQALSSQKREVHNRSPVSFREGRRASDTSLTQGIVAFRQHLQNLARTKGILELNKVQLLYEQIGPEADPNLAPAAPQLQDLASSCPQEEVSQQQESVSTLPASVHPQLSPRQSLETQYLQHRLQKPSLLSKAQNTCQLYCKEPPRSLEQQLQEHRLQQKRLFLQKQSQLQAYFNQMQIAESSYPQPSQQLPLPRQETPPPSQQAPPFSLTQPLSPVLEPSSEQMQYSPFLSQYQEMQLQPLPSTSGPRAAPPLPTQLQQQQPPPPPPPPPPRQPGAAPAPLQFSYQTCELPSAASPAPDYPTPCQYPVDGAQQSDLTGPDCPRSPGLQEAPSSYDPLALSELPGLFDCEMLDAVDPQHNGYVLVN
T30 sequence (P42679 whole entry): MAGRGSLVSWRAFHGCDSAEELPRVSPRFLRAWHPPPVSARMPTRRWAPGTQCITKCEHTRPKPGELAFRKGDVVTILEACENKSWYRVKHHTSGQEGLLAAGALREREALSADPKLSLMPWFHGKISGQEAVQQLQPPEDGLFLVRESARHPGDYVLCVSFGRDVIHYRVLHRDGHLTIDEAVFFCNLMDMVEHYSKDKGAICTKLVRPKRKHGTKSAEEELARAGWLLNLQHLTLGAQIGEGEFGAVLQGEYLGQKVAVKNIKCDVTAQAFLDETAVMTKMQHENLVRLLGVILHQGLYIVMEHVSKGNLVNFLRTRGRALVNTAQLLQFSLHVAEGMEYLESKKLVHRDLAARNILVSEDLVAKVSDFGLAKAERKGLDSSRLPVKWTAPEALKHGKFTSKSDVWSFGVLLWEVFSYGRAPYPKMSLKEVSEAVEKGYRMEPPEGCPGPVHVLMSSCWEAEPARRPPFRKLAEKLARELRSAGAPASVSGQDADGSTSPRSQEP
T19 sequence (P19525 whole entry): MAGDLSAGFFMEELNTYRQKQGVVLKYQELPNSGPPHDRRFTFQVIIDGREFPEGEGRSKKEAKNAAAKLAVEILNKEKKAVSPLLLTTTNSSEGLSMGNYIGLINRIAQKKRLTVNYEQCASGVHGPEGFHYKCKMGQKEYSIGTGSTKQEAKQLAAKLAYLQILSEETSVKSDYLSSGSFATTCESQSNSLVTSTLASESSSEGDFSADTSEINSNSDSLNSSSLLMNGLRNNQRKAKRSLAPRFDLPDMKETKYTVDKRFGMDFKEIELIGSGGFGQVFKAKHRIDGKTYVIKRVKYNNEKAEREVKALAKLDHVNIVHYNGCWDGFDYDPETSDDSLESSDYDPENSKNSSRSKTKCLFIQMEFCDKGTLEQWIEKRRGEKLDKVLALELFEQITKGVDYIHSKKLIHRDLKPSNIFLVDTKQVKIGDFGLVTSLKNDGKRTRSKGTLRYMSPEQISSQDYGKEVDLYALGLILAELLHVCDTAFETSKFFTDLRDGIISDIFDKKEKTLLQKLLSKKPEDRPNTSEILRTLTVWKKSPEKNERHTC
T22 sequence (Q8NI60 163-647): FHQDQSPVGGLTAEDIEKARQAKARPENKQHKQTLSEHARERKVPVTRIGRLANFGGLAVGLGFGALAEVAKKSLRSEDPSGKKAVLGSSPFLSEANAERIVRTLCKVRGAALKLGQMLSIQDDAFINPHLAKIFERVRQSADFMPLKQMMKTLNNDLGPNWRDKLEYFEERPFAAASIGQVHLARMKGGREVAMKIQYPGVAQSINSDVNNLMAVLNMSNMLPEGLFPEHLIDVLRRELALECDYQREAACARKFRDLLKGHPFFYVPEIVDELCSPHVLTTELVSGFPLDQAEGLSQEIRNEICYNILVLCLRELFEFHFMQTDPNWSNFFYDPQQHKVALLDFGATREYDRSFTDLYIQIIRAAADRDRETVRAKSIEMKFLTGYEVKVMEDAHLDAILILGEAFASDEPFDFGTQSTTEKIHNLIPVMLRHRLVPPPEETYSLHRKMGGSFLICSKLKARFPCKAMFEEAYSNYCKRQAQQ

Compound: COc1ccc(-c2cc3nccn3c(Nc3ncccc3C(N)=O)n2)cc1OC.Cl.Cl [BAY61-3606, 2-[7-(3,4-dimethoxyphenyl)-imidazo [1,2-c]pyrimidin-5-ylamino] nicotinamide dihydrochloride, reference compound]
- % binding compared to no inhibitor control (PIP5K1A): 64%
- % binding compared to no inhibitor control (HCK): 88%
- % binding compared to no inhibitor control (NEK6): 63%
- % binding compared to no inhibitor control (ABL2): 95%
- % binding compared to no inhibitor control (DDR2): 74%
- % binding compared to no inhibitor control (LIMK2): 98%
- % binding compared to no inhibitor control (PAK1): 94%
- % binding compared to no inhibitor control (MARK2): 63%
- % binding compared to no inhibitor control (SLK): 58%
- % binding compared to no inhibitor control (BMPR2): 46%
- % binding compared to no inhibitor control (ACVR2A): 100%
- % binding compared to no inhibitor control (NEK5): 86%
- % binding compared to no inhibitor control (GSK3B): 39%
- % inhibition ATP binding (GSK3B; GSK3β, KINOMEscan, 1 μM): 61%
- % binding compared to no inhibitor control (CHEK2): 100%
- % binding compared to no inhibitor control (KIT(L576P)): 0.4%
- % binding compared to no inhibitor control (PIK3CA(E545A)): 90%
- % binding compared to no inhibitor control (ITK): 100%
- % binding compared to no inhibitor control (SIK2): 100%
- % binding compared to no inhibitor control (PRKR): 27%
- % binding compared to no inhibitor control (CSF1R): 51%
- % binding compared to no inhibitor control (NIM1): 88%
- % binding compared to no inhibitor control (ADCK3): 99%
- % binding compared to no inhibitor control (TRKC): 92%
- % binding compared to no inhibitor control (TIE1): 100%
- % binding compared to no inhibitor control (BIKE): 22%
- % binding compared to no inhibitor control (PAK3): 92%
- % binding compared to no inhibitor control (CDK11): 100%
- % binding compared to no inhibitor control (BMPR1B): 77%
- % binding compared to no inhibitor control (MET(Y1235D)): 100%
- % binding compared to no inhibitor control (CTK): 44%
- % binding compared to no inhibitor control [1]: 99%
- % binding compared to no inhibitor control (MEK2): 86%
- % binding compared to no inhibitor control (ERK3): 73%
- % binding compared to no inhibitor control [2]: 100%
- % binding compared to no inhibitor control (PIK3CB): 92%
- % binding compared to no inhibitor control (DCAMKL3): 100%
- % binding compared to no inhibitor control (STK16): 30%
- % binding compared to no inhibitor control (LCK): 87%
- % binding compared to no inhibitor control (IRAK1): 8%
- % binding compared to no inhibitor control (MST3): 56%

Compound: COc1ccccc1Nc1nc(-c2ccc(OC)c(OC)c2)cc2nccn12 [BAY derivative 6]
- % binding compared to no inhibitor control (PIP5K1A): 86%
- % binding compared to no inhibitor control (HCK): 83%
- % binding compared to no inhibitor control (NEK6): 100%
- % binding compared to no inhibitor control (ABL2): 93%
- % binding compared to no inhibitor control (DDR2): 100%
- % binding compared to no inhibitor control (LIMK2): 89%
- % binding compared to no inhibitor control (PAK1): 83%
- % binding compared to no inhibitor control (MARK2): 65%
- % binding compared to no inhibitor control (SLK): 28%
- % binding compared to no inhibitor control (BMPR2): 87%
- % binding compared to no inhibitor control (ACVR2A): 100%
- % binding compared to no inhibitor control (NEK5): 72%
- % binding compared to no inhibitor control (GSK3B): 100%
- % binding compared to no inhibitor control (CHEK2): 97%
- % binding compared to no inhibitor control (KIT(L576P)): 38%
- % binding compared to no inhibitor control (PIK3CA(E545A)): 100%
- % binding compared to no inhibitor control (ITK): 100%
- % binding compared to no inhibitor control (SIK2): 64%
- % binding compared to no inhibitor control (PRKR): 100%
- % binding compared to no inhibitor control (CSF1R): 42%
- % binding compared to no inhibitor control (NIM1): 100%
- % binding compared to no inhibitor control (ADCK3): 87%
- % binding compared to no inhibitor control (TRKC): 98%
- % binding compared to no inhibitor control (TIE1): 94%
- % binding compared to no inhibitor control (BIKE): 53%
- % binding compared to no inhibitor control (PAK3): 100%
- % binding compared to no inhibitor control (CDK11): 100%
- % binding compared to no inhibitor control (BMPR1B): 100%
- % binding compared to no inhibitor control (MET(Y1235D)): 100%
- % binding compared to no inhibitor control (CTK): 98%
- % binding compared to no inhibitor control [1]: 25%
- % binding compared to no inhibitor control (MEK2): 100%
- % binding compared to no inhibitor control (ERK3): 88%
- % binding compared to no inhibitor control [2]: 100%
- % binding compared to no inhibitor control (PIK3CB): 100%
- % binding compared to no inhibitor control (DCAMKL3): 100%
- % binding compared to no inhibitor control (STK16): 47%
- % binding compared to no inhibitor control (LCK): 41%
- % binding compared to no inhibitor control (IRAK1): 92%
- % binding compared to no inhibitor control (MST3): 100%
